In one test the test system is D4 (FRβ) CHO cells. The experiment in a line: Cell proliferation assay, D4 CHO cells expressing FRβ. The format is cell-based, Chinese hamster. The following applies: for IC50: Cricetulus griseus, CHO, 96 h, 0-1000 nM, mean (standard error), 3-5 experiments; for RFC/FRβ Selectivity ratios: ratio of IC50 PC43-10 (RFC) to IC50 D4 (FRβ). The source says: (§1) To assess the impact of 6-methyl substitutions on the bicyclic scaffolds of the pyrrolo[2,3-d]pyrimidine antifolates 1–4 on RFC transport vis-à-vis PCFT, FRα, and FRβ, we used a unique biological readout for transport activity. This involved proliferation assays with isogenic Chinese hamster ovary (CHO) sublines derived from RFC-, FR-, and PCFT-null MTXRIIOua^R2–4 CHO cells[39],[40] engineered to express the human FRα (RT16),[25] FRβ (D4),[25] RFC (PC43–10),[41] or PCFT (R2/PCFT4).[26],[42] As these CHO cell lines are genetically identical except for their folate transporters, differences in inhibition of cell proliferation by specific cytotoxic antifolates directly reflect transporter specificities.[19],[23]−[31],[42] […]
(§2) Reagents for biological studies. Leucovorin [(6R,S) 5-formyl tetrahydrofolate] and methotrexate (MTX) was provided by the Drug Development Branch, National Cancer Institute, Bethesda, MD. Other chemicals were obtained from commercial sources in the highest available purities. Pemetrexed (PMX; 1) [N-{4-[2- (2-amino-3,4-dihydro-4-oxo-7H-pyrrolo[2,3-d]pyrimidin-5-yl)ethyl]benzoyl-L-glutamic acid] (Alimta) was purchased from LC Laboratories (Woburn, MA). The syntheses of compounds 2 and 3 were previously described.7, 8 Additional chemicals were purchased from commercial sources in the highest available purities.
(§3) Cell Culture. The reduced folate carrier (RFC), proton-coupled folate transporter (SLC46A1; PCFT) and folate receptor (FR) α- and β-null Chinese hamster ovary (CHO) cell line MTXRIIOuaR2-49 was a gift from Dr. Wayne Flintoff (University of Western Ontario, London, ON). Four sublines were derived from the R2 subline by transfection with either RFC, PCFT, FRα, or FRβ, giving rise to PC43-10 (expresses human RFC), 10 R2/PCFT4 (expresses human PCFT),11 RT16 (expresses human FRα), 12 and D4 (expresses FRβ) cells. 12 Isogenic CHO sublines were routinely cultured in α-minimal essential medium (α-MEM) supplemented with 100 units/mL penicillin/100 μg/mL streptomycin, 2 mM L-glutamine and 10% bovine calf serum (Sigma-Aldrich). Transfected sublines of R2 cells were cultured in the presence of 1.5 mg/ml G418. […]
(§4) mM L-glutamine. Cell lines were tested for Mycoplasma by PCR using a Mycloplasma testing kit (Venor™ GeM Mycoplasma Detection Kit, Sigma). Frozen stocks were generated from authenticated Mycoplasma-free cultures.
(§5) For cell proliferation assays, CHO, KB, NCI-IGROV1 and IOSE 7576 cells were plated in 96-well dishes at densities ranging from 2500-5000 cells/well in 200 μL media and treated with a range of inhibitors spanning 0-1000 nM. Experiments with RT16, D4, IGROV1, IOSE 7576 and KB cells used folate-free RPMI 1640 (FF RPMI) media with 10% dialyzed fetal bovine serum and 100 units/mL penicillin/100 μg/mL streptomycin, supplemented with 2 nM leucovorin and 2 mM L-glutamine. FR-mediated drug uptake was assessed in parallel incubations including 200 nM folic acid. For R2/PCFT4, PC43-10 and R2 CHO cells, the medium was FF-RPMI supplemented with 10% dialyzed fetal bovine serum, 100 units/mL penicillin/100 μg/mL streptomycin, 25 nM leucovorin and 2 mM L-glutamine.
(§6) Cells were treated over a 96 h period at 37° C with 5% CO2 and relative cell numbers quantified using the CellTiter-blue cell viability assay (Promega, Madison, WI) and a fluorescence plate reader. Raw data were exported to Excel for analysis and the results were plotted using Graphpad Prism 6.0. Determinations of IC50s were made […]
(§7) assays have been previously described.7, 8, 11, 12, 15-20
(§8) Using KB cells, additional proliferation assays were performed with metabolite protection in folate- and glycine-free RPMI1640 with 10% dialyzed fetal bovine serum, 2 mM L-glutamine and antibiotics with 2 nM leucovorin to identify the targeted pathway and enzyme(s). 7, 8, 11, 12, 15-20 Inhibitory effects of the novel analogs on de novo thymidylate biosynthesis and de novo purine nucleotide biosynthesis were tested by incubating drugs with thymidine (10 μM) and adenosine (60 μM), respectively. […]

The subject of test [1] is IOSE 7576 normal ovary cells. The experiment in a line: Cell proliferation assay, IOSE 7576 normal ovary cells. Type of test: cell-based, human. The note with it: for IC50: Homo sapiens, 96 h, 0-1000 nM, mean (standard error), 3-5 experiments.
Text: For the tumor cells, except the des-methyl compound 4 with IGROV1 cells, all compounds were inhibitory. […]
Reagents for biological studies. Leucovorin [(6R,S) 5-formyl tetrahydrofolate] and methotrexate (MTX) was provided by the Drug Development Branch, National Cancer Institute, Bethesda, MD. Other chemicals were obtained from commercial sources in the highest available purities. Pemetrexed (PMX; 1) [N-{4-[2- (2-amino-3,4-dihydro-4-oxo-7H-pyrrolo[2,3-d]pyrimidin-5-yl)ethyl]benzoyl-L-glutamic acid] (Alimta) was purchased from LC Laboratories (Woburn, MA). The syntheses of compounds 2 and 3 were previously described.7, 8 Additional chemicals were purchased from commercial sources in the highest available purities. […]
KB nasopharyngeal carcinoma cells were obtained from the American Type Culture Collection (Manassas, VA) and IGROV1 (NCI-IGROV1) (passage 5) ovarian adenocarcinoma cells13 were obtained from the Division of Cancer Treatment and Diagnosis, National Cancer Institute (Frederick, MD). Normal ovary cells immortalized with SV40 (IOSE 7576)14 were obtained from the Canadian OvCaRe Cell Bank […]
(Vancouver, B.C). IGROV1, KB and IOSE 7576 cells were cultured in complete FF-RPMI with 10% fetal bovine serum and 100 units/mL penicillin/100 μg/mL streptomycin, and 2 mM L-glutamine. Cell lines were tested for Mycoplasma by PCR using a Mycloplasma testing kit (Venor™ GeM Mycoplasma Detection Kit, Sigma). Frozen stocks were generated from authenticated Mycoplasma-free cultures.
as §5, §6, §7
as §8, with “respectively. Incubation with glycine (130 µM) was used to assess the potential involvement of mitochondrial C1 targeted agents.15 To identify multiple metabolic targets, metabolite additions were added in combination.7, 8, 11, 12, 15-19 Finally, to distinguish targeting between the folate-dependent purine biosynthetic enzymes glycinamide ribonucleotide formyltransferase (GARFTase) and 5-aminoimidazole-4-carboxamide (AICA) ribonucleotide formyltransferase (AICARFTase), co-incubation experiments were performed using AICA hydrochloride (320 μM). 7, 8, 11, 12,” for “respectively.”
Statistics. The biological data reflect at least three experimental replicates. All statistical comparisons were performed using unpaired t-tests. Biological data are presented as mean values +/- standard errors using data without transformation.

For the next test, the system named is RT16 (FRα) CHO cells. Kind of test: Cell proliferation assay, RT16 CHO cells expressing human FRα. The format is cell-based, Chinese hamster. The note with it: for IC50: Cricetulus griseus, RT16, 96 h, 0-1000 nM, mean (standard error), 3-5 experiments; for RFC/FRα Selectivity ratios: ratio of IC50 PC43-10 (RFC) to IC50 RT16 (FRα).
Text: as §1, §2, §3, §4, §5, §6, §7, §8

In general, IC50 refers to the concentration that gives 50% inhibition.

For `Nc1nc2[nH]cc(CCc3ccc(C(=O)N[C@@H](CCC(=O)O)C(=O)O)cc3)c2c(=O)[nH]1` [Compound 1, reference compound], the IC50 with D4 (FRβ) CHO cells is 63.2 nM; in test [1], 627 nM; in the test on RT16 (FRα) CHO cells it was 14 nM.
As for `Nc1nc2[nH]cc(CCCc3ccc(C(=O)N[C@@H](CCC(=O)O)C(=O)O)cc3)c2c(=O)[nH]1` [Compound 2], the results for the half-inhibitory concentration (IC50) (in the test with D4 (FRβ) CHO cells; in test [1]; in the test on RT16 (FRα) CHO cells) were 3.54 nM, 13.2 nM and 47.9 nM, respectively.
Turning to `Nc1nc2[nH]cc(CCc3ccc(C(=O)N[C@@H](CCC(=O)O)C(=O)O)s3)c2c(=O)[nH]1` [Compound 3], the figures for the half-inhibitory concentration (IC50) (in the test with D4 (FRβ) CHO cells; in test [1]; in the test on RT16 (FRα) CHO cells) were 552 nM, 39.3 nM and 550 nM, respectively. In addition, the “RFC/FRβ Selectivity ratios” value with D4 (FRβ) CHO cells is on record as 0.11. For the same molecule, the “RFC/FRα Selectivity ratios” value in the test on RT16 (FRα) CHO cells is given as 0.11.
For `Nc1nc2[nH]cc(CCc3ccc(C(=O)N[C@@H](CCC(=O)O)C(=O)O)c(F)c3)c2c(=O)[nH]1` [Compound 4], in the test on D4 (FRβ) CHO cells, 8.9 nM corresponded to half-maximal inhibition (IC50) and the “RFC/FRβ Selectivity ratios” value came out at 19. In test [1], the “inhibition of IOSE 7576 cells (in words)” value is “inactive” and the IC50 is greater than 1000 nM. Further, in the test with RT16 (FRα) CHO cells, the midpoint of inhibition, the IC50, lay at 6.76 nM and the “RFC/FRα Selectivity ratios” value was found to be 25.
With `Cc1[nH]c2nc(N)[nH]c(=O)c2c1CCc1ccc(C(=O)N[C@@H](CCC(=O)O)C(=O)O)cc1` [Compound 5], in the test with D4 (FRβ) CHO cells, it took 5.7 nM to reach half-maximal inhibition (IC50) and the “RFC/FRβ Selectivity ratios” value is listed as greater than 175. In test [1], the IC50 is greater than 1000 nM. Moreover, in the test on RT16 (FRα) CHO cells, the IC50 is 94.8 nM and the “RFC/FRα Selectivity ratios” value is given as greater than 10.5.
As for `Cc1[nH]c2nc(N)[nH]c(=O)c2c1CCCc1ccc(C(=O)N[C@@H](CCC(=O)O)C(=O)O)cc1` [Compound 6], in the test on D4 (FRβ) CHO cells, the IC50 is 2.61 nM and the “RFC/FRβ Selectivity ratios” value is greater than 383. Moreover, in test [1], the “inhibition of IOSE 7576 cells (in words)” value is given as “modestly inhibitory” and the IC50 stood at 824 nM. Besides, in the test on RT16 (FRα) CHO cells, the IC50 was determined as 63.8 nM and the “RFC/FRα Selectivity ratios” value is greater than 15.7.
`Cc1[nH]c2nc(N)[nH]c(=O)c2c1CCc1ccc(C(=O)N[C@@H](CCC(=O)O)C(=O)O)s1` [Compound 7]: in the test with D4 (FRβ) CHO cells, the concentration for half-maximal inhibition (IC50) was 2.98 nM and the “RFC/FRβ Selectivity ratios” value was greater than 335. For the same molecule, the IC50 in test [1] is greater than 1000 nM. Besides, in the test with RT16 (FRα) CHO cells, the concentration for half-maximal inhibition (IC50) came out at 2.53 nM and the “RFC/FRα Selectivity ratios” value was greater than 395.
For `Cc1[nH]c2nc(N)[nH]c(=O)c2c1CCc1ccc(C(=O)N[C@@H](CCC(=O)O)C(=O)O)c(F)c1` [Compound 8] the same measures were 49 nM, greater than 20, greater than 1000 nM, 100 nM and greater than 10.

The values are drawn from article PMC10726441, “Discovery of Tumor-Targeted 6-Methyl Substituted Pemetrexed and Related Antifolates with Selective Loss of RFC Transport” (ACS Medicinal Chemistry Letters, 2023).
